For 18 compounds, TGI and GI50 results are on record in PubChem BioAssay (NCI).

Some test systems named below: DLD-1 colon; DMS 273 small cell lung; HOP-18 NSCLC; KM20L2 colon; RXF-631 renal; SNB-78 CNS; XF 498 CNS; MDA-N; P388 leukemia; P388/ADR leukemia; SN12K1 renal.
Holding throughout (assay): NCI tumour cell line growth inhibition, 48 h

Each structure is given as a SMILES string. Where “and” joins values, the source holds several entries; their conditions need not be identical. Equal entries are not always repeated.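 Each compound was tested at five concentrations against cells in 96-well plates for 48 hours. GI50 is the concentration that inhibits growth by half. At the TGI there is no net growth.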

`O=C1NC2(NC(=O)C1=O)Nc1ccccc1S2`: the TGI was more than 67.5 µM in the test with DLD-1 colon; more than 100 µM in the test with DMS 273 small cell lung; more than 100 µM with HOP-18 NSCLC; more than 100 µM in the test with KM20L2 colon; 47.9 µM with RXF-631 renal; more than 100 µM in the test with SNB-78 CNS.

Regarding `COC[C@@H]1Cc2cc(OC)c3c(c2[C@H](c2ccc(OC)c(OC)c2)[C@H]1COC)OCO3`, the TGI with DLD-1 colon, with DMS 273 small cell lung, with HOP-18 NSCLC, in the test with KM20L2 colon, in the test with RXF-631 renal and with XF 498 CNS was more than 100 µM throughout.

In turn, `CC(C)(C)C(=O)CC(=O)C(F)(F)C(F)(F)C(F)(F)F.CC(C)(C)C(=O)CC(=O)C(F)(F)C(F)(F)C(F)(F)F.CC(C)(C)C(=O)CC(=O)C(F)(F)C(F)(F)C(F)(F)F.[Er]` displayed a TGI in the test with MDA-N of more than 100 µM.

In the test with MDA-N, `CN(CCNC(=O)c1cn(C)c2c1ccc1cc(Cl)ccc12)CCNC(=O)c1cn(C)c2c1ccc1cc(Cl)ccc12` had a TGI of 3.41 µM.

`O=[P+](O)c1cccs1`: the TGI in the test on DLD-1 colon, in the test on DMS 273 small cell lung, in the test on HOP-18 NSCLC, in the test on KM20L2 colon and with XF 498 CNS was more than 100 µM throughout.

`O=[N+]([O-])c1ccc(/C=N/n2c(CCc3n[nH]c(=S)n3/N=C/c3ccc([N+](=O)[O-])o3)n[nH]c2=S)o1`: the TGI in the test on MDA-N was 26.7 µM.

For `CC1C(O)[C@@]2(OC[C@@]34C(=O)CC5(O)[C@H](CCC6Cc7nc8c(nc7C[C@]65C)CC5CC[C@@H]6C7=C[C@H]9O[C@@]%10(O[C@@](C)(CO)C[C@@H]%10O)C(C)[C@@]9(O)[C@]7(C)[C@@H](O)CC6[C@]5(C)C8)C3=CC[C@H]4C2C)OC1(C)C` (stereo partly specified), the TGI is 0.652 µM in the test with DLD-1 colon; 0.000455 µM in the test with DMS 273 small cell lung; 3.43 µM in the test with HOP-18 NSCLC; 0.0669 µM in the test with KM20L2 colon; more than 3.55 µM with P388 leukemia; 0.0266 µM in the test with P388/ADR leukemia. Further, the values for the TGI in the test on SN12K1 renal and in the test with SNB-78 CNS were more than 3.55 µM and 3.44 µM, respectively.

On to `O=C1/C(=C/c2ccc3c(c2)OCO3)Sc2scc(-c3ccc(O)c(O)c3)[n+]21`, for which the TGI with MDA-N worked out at 9.81 µM.

On to `O=C1CSc2sc(=S)sc2S1`, for which the TGI in the test on DLD-1 colon was more than 100 µM; with DMS 273 small cell lung, more than 100 µM; with HOP-18 NSCLC, more than 100 µM; in the test on KM20L2 colon, more than 100 µM; with P388 leukemia, more than 100 µM; with P388/ADR leukemia it was 97.8 µM. Further, the TGI in the test on SN12K1 renal is more than 100 µM; in the test on SNB-78 CNS it was 99.2 µM; in the test with XF 498 CNS, more than 100 µM.

In turn, `NS(=O)(=O)c1ccc(N=Nc2ccc(O)c(O)c2)cc1` had a TGI in the test with MDA-N of more than 100 µM.

With `O=NN(CCCl)C(=O)Nc1ccc(Cl)c(Cl)c1`, the TGI in the test on DLD-1 colon is more than 100 µM; in the test with DMS 273 small cell lung it was more than 100 µM; with HOP-18 NSCLC, more than 26.2 µM; with KM20L2 colon, more than 69.3 µM; with P388 leukemia, more than 100 µM; with P388/ADR leukemia, more than 100 µM. Moreover, the values for the TGI in the test on SN12K1 renal, in the test with SNB-78 CNS and in the test on XF 498 CNS were more than 100 µM, more than 100 µM and 99.7 µM, respectively.

In turn, `OCCSCc1cc(Cl)cc(Cl)c1O` yielded a TGI with MDA-N of more than 100 µM.

As to `Nc1nccc2c1ncn2C1C=C(CO)C(O)C1O` (stereo unspecified), the GI50 in the test on DLD-1 colon was 104 µM; in the test on DMS 273 small cell lung it was 6.13 µM; with RXF-631 renal, 902 µM; in the test with SNB-78 CNS, more than 1000 µM; with XF 498 CNS, 817 µM. Further, the TGI in the test with DLD-1 colon was more than 1000 µM; with DMS 273 small cell lung, more than 1000 µM; in the test on P388 leukemia it was more than 76.4 µM; with P388/ADR leukemia, 40.8 µM; in the test with RXF-631 renal, more than 1000 µM; in the test on SNB-78 CNS, more than 1000 µM. Besides, the TGI in the test on XF 498 CNS is more than 1000 µM.

With `COc1cc(CCC(=O)O)c2cc3ccccc3cc2c1O`, the TGI with MDA-N amounted to 32.5 µM.

Turning to `Cc1cc(O)c2cc3c(O)c(O)ccc3cc2c1`, in the test with MDA-N, the TGI worked out at 8.86 µM.

Regarding `Cc1ccc(NC(=O)CC(=O)n2nc(-c3ccccc3)c(N=Nc3ccccc3C(=O)O)c2-c2ccccc2)cc1`, the TGI in the test with DLD-1 colon, in the test with DMS 273 small cell lung, in the test on KM20L2 colon and in the test on RXF-631 renal was more than 100 µM throughout.

With `COc1cccc2c1C(=O)c1c(O)c3c(c(O)c1C2=O)C[C@@](O)(C(C)=O)C[C@@H]3OC1CC(N(C)C)C(O)C(C)O1` (stereo partly specified), the TGI is 3.34 µM and 0.705 µM with DLD-1 colon; 0.204 µM and 0.18 µM in the test on DMS 273 small cell lung; 0.585 µM and 2.17 µM in the test with HOP-18 NSCLC; 0.307 µM and 0.367 µM in the test on KM20L2 colon; 0.00154 µM in the test with MDA-N; 0.0139 µM in the test on P388 leukemia. The TGI is 0.135 µM in the test on P388/ADR leukemia; 0.0851 µM in the test with SN12K1 renal; 1.04 µM and 0.467 µM with SNB-78 CNS; 0.403 µM and 0.0877 µM in the test with XF 498 CNS. Moreover, the GI50 in the test with DMS 273 small cell lung is 0.0054 µM; in the test on KM20L2 colon it was less than 0.0133 µM; in the test with SNB-78 CNS, 0.0302 µM and 0.0169 µM.

`O=CN(O)CC(=O)O.[Ni]` gave a TGI in the test on MDA-N of more than 100 µM.
